GI50 and Activity data for 26 compounds are collected here from ChEMBL document CHEMBL1138956, “Synthesis and in vitro anti-tumor activity of N-{1-[(3-thioxo-5,6-dihydroimidazo[2,1-c][1,2,4]thiadiazol-7-ylthio)thiocarbonyl]-2-imidazolidene}arylsulfonamides” (2006).

Assay [1] relates to KYSE-510. Nature of the assay: Antitumor activity against KYSE510 cell line after 96 hrs using crystal violet. It is filed as functional. To be noted: Homo sapiens, KYSE-510, 96 h.
Assay [2] has as its system RXF 393. Put plainly: Antitumor activity against RXF393 cell line. It is filed as functional, cell-based. To be noted: Homo sapiens.
The subject of assay [3] is CCRF-CEM. Put plainly: Antitumor activity against CCRF-CEM cell line. Format: functional, cell-based. Conditions: Homo sapiens.
The subject of assay [4] is 5637. Put plainly: Antitumor activity against 5637 cell line after 96 hrs using crystal violet. To be noted: Homo sapiens, 5637, 96 h. It is filed as functional.
Assay [5] has as its system UO-31. Nature of the assay: Antitumor activity against UO31 cell line. It is filed as functional, cell-based. Conditions: Homo sapiens.
Assay [6] concerns RPMI-8226. Nature of the assay: Antitumor activity against RPMI8226 cell line. Format: functional, cell-based. Conditions: Homo sapiens.
For assay [7], the system named is SK-OV-3. Put plainly: Antitumor activity against SKOV3 cell line. It is filed as functional, cell-based. Conditions: Homo sapiens.
The test system of assay [8] is LOX IMVI. Put plainly: Antitumor activity against LOXIMVI cell line. Format: functional, cell-based. To be noted: Homo sapiens.
Assay [9] relates to SF-539. Nature of the assay: Antitumor activity against SF539 cell line. Conditions: Homo sapiens. Format: functional, cell-based.
The test system of assay [10] is HL-60. Put plainly: Antitumor activity against HL60(TB) cell line. Format: functional, cell-based. To be noted: Homo sapiens.
The subject of assay [11] is SR. Nature of the assay: Antitumor activity against SR cell line. Format: functional, cell-based. To be noted: Homo sapiens.
In assay [12] the test system is ACHN. Nature of the assay: Antitumor activity against ACHN cell line. It is filed as functional, cell-based. Conditions: Homo sapiens.
The subject of assay [13] is HOP-92. Nature of the assay: Antitumor activity against HOP92 cell line. Format: functional, cell-based. To be noted: Homo sapiens.

Activity calls are given as the source filed them. The calls are words filed in the database; no cut-off is given here.

The compound `O=S(=O)(NC1=NCCN1C(=S)SN1CCn2c1nsc2=S)c1cc(Cl)cc(Cl)c1` returned a GI50 in assay [1] not below 20 µM.
`O=S(=O)(NC1=NCCN1C(=S)SN1CCn2c1nsc2=S)c1ccc(F)c(Cl)c1` had a GI50 in [1] not below 20 µM.
Regarding `COc1ccc(OC)c(S(=O)(=O)NC2=NCCN2C(=S)SN2CCn3c2nsc3=S)c1`, the GI50 in assay [1] is not below 20 µM.
In the case of `O=S(=O)(NC1=NCCN1C(=S)SN1CCn2c1nsc2=S)c1cccc(Cl)c1`, the result in assay [2] and in assay [3] was Active. For the same compound, the GI50 in assay [1] is not below 20 µM.
For the compound `O=S(=O)(NC1=NCCN1C(=S)SN1CCn2c1nsc2=S)c1ccc(Cl)c(Cl)c1`, in assay [1], the GI50 was not below 20 µM.
In the case of `O=[N+]([O-])c1ccc(S(=O)(=O)NC2=NCCN2C(=S)SN2CCn3c2nsc3=S)cc1`, the GI50 is not below 20 µM in [1] and 3.67 µM in assay [4].
Take `COc1ccc(S(=O)(=O)NC2=NCCN2C(=S)SN2CCn3c2nsc3=S)cc1`: the outcome in assay [5] and in assay [2] was Active. In assay [1], this compound had a GI50 not below 20 µM.
Consider `O=S(=O)(NC1=NCCN1C(=S)SN1CCn2c1nsc2=S)c1ccc(C(F)(F)F)cc1`, for which, in [1], the GI50 is not below 20 µM.
Same read-out and setting: in the case of `O=S(=O)(NC1=NCCN1C(=S)SN1CCn2c1nsc2=S)c1ccc(-c2ccccc2)cc1` it was not below 20 µM.
For `O=S(=O)(NC1=NCCN1C(=S)SN1CCn2c1nsc2=S)c1cccc2ccccc12`, the result in assay [3] and in assay [6] was Active. The GI50 in [1] is not below 20 µM.
Take `Cc1ccc(S(=O)(=O)NC2=NCCN2C(=S)SN2CCn3c2nsc3=S)cc1`: the result in assay [7] and in [8] was Active. In addition, in assay [1], the GI50 is not below 20 µM.
`Cc1cc(C)c(S(=O)(=O)NC2=NCCN2C(=S)SN2CCn3c2nsc3=S)c(C)c1` showed a GI50 in assay [1] not below 20 µM.
The same measure, in the same setting: in the case of `O=S(=O)(NC1=NCCN1C(=S)SN1CCn2c1nsc2=S)c1ccccc1` it was not below 20 µM; in that of `O=S(=O)(NC1=NCCN1C(=S)SN1CCn2c1nsc2=S)c1ccc(Cl)c(Cl)c1Cl`, not below 20 µM.
Consider `O=S(=O)(NC1=NCCN1C(=S)SN1CCn2c1nsc2=S)c1ccc(Cl)cc1`, for which the outcome in assay [5] and in assay [9] was Active. This compound registered a GI50 in assay [1] not below 20 µM.
In [1], `O=S(=O)(NC1=NCCN1C(=S)SN1CCn2c1nsc2=S)c1ccc(Cl)cc1Cl` gave a GI50 not below 20 µM.
As for `COc1ccc(S(=O)(=O)NC2=NCCN2C(=S)SN2CCn3c2nsc3=S)cc1OC`, in assay [2], the outcome was Active. The GI50 in assay [1] was not below 20 µM.
Turning to `O=S(=O)(NC1=NCCN1C(=S)SN1CCn2c1nsc2=S)c1ccccc1Cl`, the result in assay [3] and in [10] was Active. In assay [1], the GI50 was not below 20 µM.
As for `O=S(=O)(NC1=NCCN1C(=S)SN1CCn2c1nsc2=S)c1ccc2ccccc2c1`, the concentration for 50% growth inhibition (GI50) in assay [1] is not below 20 µM.
Still for that read-out and setting: in the case of `CC(=O)Nc1ccc(S(=O)(=O)NC2=NCCN2C(=S)SN2CCn3c2nsc3=S)cc1` it was not below 20 µM.
For the compound `O=S(=O)(NC1=NCCN1C(=S)SN1CCn2c1nsc2=S)c1ccc(OC(F)(F)F)cc1`, the outcome in assay [11] and in assay [9] was Active. The compound also came in with a GI50 in assay [1] not below 20 µM.
As for `COc1cc(C)ccc1S(=O)(=O)NC1=NCCN1C(=S)SN1CCn2c1nsc2=S`, the GI50 in assay [1] is not below 20 µM.
In the case of `COc1cccc(S(=O)(=O)NC2=NCCN2C(=S)SN2CCn3c2nsc3=S)c1`, the result in assay [8] and in [12] was Active. The same compound had a GI50 in [1] not below 20 µM.
For `O=S(=O)(NC1=NCCN1C(=S)SN1CCn2c1nsc2=S)c1ccc(Br)cc1`, the result in [6] and in assay [13] was Active. Further, in [1], the GI50 was not below 20 µM.
On to `O=S(=O)(NC1=NCCN1C(=S)SN1CCn2c1nsc2=S)c1ccc(Oc2ccccc2)cc1`, for which the outcome in assay [11] and in [10] was Active. In assay [1], the GI50 was not below 20 µM.
In the case of `O=S(=O)(NC1=NCCN1C(=S)SN1CCn2c1nsc2=S)c1cccc(OC(F)(F)F)c1`, the result in assay [3] and in assay [6] was Active. Further, the GI50 in [1] was not below 20 µM.
